“Also recorded” adds a separate entry of the source. Blank lines part the entries; values can stand above or below the molecule they belong to.
Key:
Kelly cells = assay: ATPlite cell growth inhibition assay, Kelly cell lines treated 72 hours; assay type: cell-based; conditions: for Kelly NB cell growth inhibition: 72 hours, ATPlite, normalized to DMSO; for IC50: ND: not detected
Method: Compounds CPD 1 to CPD 22 were tested via ATPlite™ assay (ATPlite™ 1000 assay kit, PerkinElmer®, USA) using standard protocol. […] The signal is normalized to DMSO treated cells.

cereblon (CRBN) = cereblon (CRBN) (Homo sapiens, UniProt Q96SW2); assay: AlphaScreen assay, cereblon (CRBN); assay type: binding
Text: An AlphaLISA® assay for EP300 catalytic function (FIG. 3B) and an AlphaScreen™ assay for EP300 bromodomain and cereblon (CRBN) using biotinylated tagged small molecules as a probe for EP300 bromodomain and CRBN, respectively, were developed (FIG. 3C).
AlphaScreen™ assay was used to determine the binding of inventive degrader compound toward both CRBN and HAT domain.

HAT (EP300) domain = target: T1, HAT (EP300) domain (Homo sapiens, UniProt Q09472); assay: AlphaScreen assay, HAT (EP300) domain; assay type: binding
T1 sequence (Q09472 1287-1663 limits assumed): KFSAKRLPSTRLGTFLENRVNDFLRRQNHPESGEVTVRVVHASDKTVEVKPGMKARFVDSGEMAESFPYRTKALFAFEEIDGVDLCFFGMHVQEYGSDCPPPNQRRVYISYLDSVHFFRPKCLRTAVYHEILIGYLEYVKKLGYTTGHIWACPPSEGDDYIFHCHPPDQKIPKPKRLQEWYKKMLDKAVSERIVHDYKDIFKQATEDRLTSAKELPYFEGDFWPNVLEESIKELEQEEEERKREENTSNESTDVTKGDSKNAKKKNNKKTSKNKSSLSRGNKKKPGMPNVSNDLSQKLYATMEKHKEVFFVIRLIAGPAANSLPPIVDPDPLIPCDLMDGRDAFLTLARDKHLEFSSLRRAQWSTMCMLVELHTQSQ
Method: The AlphaScreen™ assay was performed in 384-well plate format using white AlphaPlate (PerkinElmer®, USA), and transfer of pre-diluted compound (100 nL) was performed using a Janus Workstation (PerkinElmer®, USA). All subsequent steps were carried out in assay buffer (50 mM 4-(2-hydroxyethyl)-1-piperazineethanesulfonic acid (HEPES), pH 7.5, 0.1% (wt/vol) bovine serum albumin (BSA) and 0.01% (vol/vol) Tween-20). In brief, 10 μL of assay buffer containing enzyme (2 nM Final) was pre-incubated for 15 min with dilutions of compound. The enzyme reaction was initiated by the addition of substrate (5 μL) consisting of acetyl Co-A 2-OG (5 μM Final).
FAS final concentration was 10 μM. Histone tail-GGK Biotin final concentration was 100 nM Final. The enzyme reaction was allowed to proceed for 30 minutes and was stopped by the addition of 5 μL of assay buffer containing ethylenediaminetetraacetic acid (EDTA) (40 mM) and NaCl (1200 mM). The final concentration of dimethyl sulfoxide (DMSO) was 1%. Streptavidin donor beads (0.08 mg/mL) and protein-A-conjugated acceptor beads (0.08 mg/mL) were preincubated for 1 h with antibody to methyl mark (300 ng/mL Final), and the presence of histone H3 product acetylation mark was detected using the preincubated AlphaScreen™ beads (5 μL). Detection was allowed to proceed for 2 hours at rt, and the assay plates were read on the Envision™ 2104 plate reader. Data were normalized to the (no-enzyme) control, and the IC50 values were determined via nonlinear regression curve fit using GraphPad Prism (FIG. 4E-FIG. 4H).
AlphaScreen™ assay was used to determine the binding of inventive degrader compound toward both CRBN and HAT domain. The experimental protocol is the same as in Example 26.

Kelly NB cells = assay: EP300/CBP inhibitors in Kelly NB cells (colony formation, CellTiter-Glo growth assays); assay type: cell-based
Method: The effects of several EP300/CBP inhibitors, C646, CBP30 and A485 were tested in Kelly NB cells. (FIG. 2B).

[1] = in mice; cited from earlier work

cereblon (CRBN), sequence (Q96SW2 whole entry): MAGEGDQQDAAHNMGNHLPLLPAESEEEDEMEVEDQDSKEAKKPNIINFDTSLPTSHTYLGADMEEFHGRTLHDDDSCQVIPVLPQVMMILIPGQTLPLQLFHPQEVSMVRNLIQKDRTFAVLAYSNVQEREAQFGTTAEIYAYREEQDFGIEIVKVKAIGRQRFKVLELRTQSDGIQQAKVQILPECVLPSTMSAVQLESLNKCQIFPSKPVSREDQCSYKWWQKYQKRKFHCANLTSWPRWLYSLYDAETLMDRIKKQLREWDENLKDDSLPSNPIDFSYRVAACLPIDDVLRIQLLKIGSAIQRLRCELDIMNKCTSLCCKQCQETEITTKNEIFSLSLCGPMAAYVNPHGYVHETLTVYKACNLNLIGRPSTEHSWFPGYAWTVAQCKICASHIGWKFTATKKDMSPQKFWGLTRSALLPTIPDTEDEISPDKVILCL

Compound: CC(N(Cc1ccc(F)cc1)C(=O)CN1C(=O)O[C@@]2(CCc3cc(NC(=O)CCCNC(=O)CCCCCNc4ccc5c(c4)C(=O)N(C4CCC(=O)NC4=O)C5=O)ccc32)C1=O)C(F)(F)F (stereo in doubt) [CPD 10, 6-((2-(2,6-dioxopiperidin-3-yl)-1,3-dioxoisoindolin-5-yl)amino)-N-(4-(((R)-3′-(2-((4-fluorobenzyl)((R)-1,1,1-trifluoropropan-2-yl)amino)-2-oxoethyl)-2′,4′-dioxo-2,3-dihydrospiro[indene-1,5′-oxazolidin]-5-yl)amino)-4-oxobutyl)hexanamide]
- Kelly NB cell growth inhibition (Kelly cells): Cell growth inhibition was observed
- IC50 (Kelly cells): 1.15 µM

Compound: CC(=O)Nc1ccc2c(c1)CC[C@@]21OC(=O)N(CC(=O)N(Cc2ccc(F)cc2)[C@H](C)CNC(=O)CCCCCCCCCCCNc2ccc3c(c2)C(=O)N(C2CCC(=O)NC2=O)C3=O)C1=O (stereo partly drawn) [CPD 15, N—((R)-2-(2-((R)-5-acetamido-2′,4′-dioxo-2,3-dihydrospiro[indene-1,5′-oxazolidin]-3′-yl)-N-(4-fluorobenzyl)acetamido)propyl)-12-((2-(2,6-dioxopiperidin-3-yl)-1,3-dioxoisoindolin-5-yl)amino)dodecanamide]
- Kelly NB cell growth inhibition (Kelly cells): Cell growth inhibition was observed
- IC50 (Kelly cells): 1.76 µM

- binding to cereblon (CRBN) (cereblon (CRBN)): bind
Compound: O=C1CCC(N2C(=O)c3ccccc3C2=O)C(=O)N1 (stereo not shown) [thalidomide, reference compound]

Compound: CNC(=O)Nc1ccc2c(c1)CC[C@@]21OC(=O)N(CC(=O)N(Cc2ccc(F)cc2)[C@@H](C)C(F)(F)F)C1=O [A485, N-[(4-fluorophenyl)methyl]-2-{(1R)-5-[(methylcarbamoyl)amino]-2′,4′-dioxo-2,3-dihydro-3′H-spiro[indene-1,5′-[1,3]oxazolidin]-3′-yl}-N-[(2S)-1,1,1-trifluoropropan-2-yl]acetamide]
- binding to HAT (EP300) domain (HAT (EP300) domain): bind
- binding to cereblon (CRBN) (cereblon (CRBN)): no binding was observed
- apoptosis (Kelly NB cells; Kelly NB cells, increasing doses): induction of apoptosis
- growth inhibition (Kelly NB cells; Kelly NB cells, increasing doses, CellTiter-Glo): growth inhibition
- growth changes in cellular models of NB compared with C646 and CBP30 (Kelly NB cells; at submicromolar levels): superior to other known EP300/CBP inhibitors
- half life [1]: 42 min

- binding to cereblon (CRBN) (cereblon (CRBN)): bind
Compound: Nc1cccc2c1C(=O)N(C1CCC(=O)NC1=O)C2=O (stereo not shown) [pomalidomide, reference compound]

Compound: C[C@H](N(Cc1ccc(F)cc1)C(=O)CN1C(=O)O[C@@]2(CCc3cc(NC(=O)CCCNC(=O)CCCCCCCCCCCNc4ccc5c(c4)C(=O)N(C4CCC(=O)NC4=O)C5=O)ccc32)C1=O)C(F)(F)F (stereo partly shown)
- Kelly NB cell growth inhibition (Kelly cells): outperformed positive control A485; also recorded: Cell growth inhibition was observed
- IC50 (Kelly cells): 0.31 µM

Compound: CC(=O)Nc1ccc2c(c1)CC[C@@]21OC(=O)N(CC(=O)N(Cc2ccc(F)cc2)[C@@H](C)CNC(=O)CCCCCCCCCCCNc2ccc3c(c2)C(=O)N(C2CCC(=O)NC2=O)C3=O)C1=O (stereo partly drawn) [CPD 16, N—((S)-2-(2-((R)-5-acetamido-2′,4′-dioxo-2,3-dihydrospiro[indene-1,5′-oxazolidin]-3′-yl)-N-(4-fluorobenzyl)acetamido)propyl)-12-((2-(2,6-dioxopiperidin-3-yl)-1,3-dioxoisoindolin-5-yl)amino)dodecanamide]
- Kelly NB cell growth inhibition (Kelly cells): outperformed positive control A485; also recorded: Cell growth inhibition was observed
- IC50 (Kelly cells): 0.27 µM

Compound: C[C@H](N(Cc1ccc(F)cc1)C(=O)CN1C(=O)O[C@@]2(CCc3cc(NC(=O)CCc4ccc(NC(=O)CCCCCCCCCCCNc5ccc6c(c5)C(=O)N(C5CCC(=O)NC5=O)C6=O)cc4)ccc32)C1=O)C(F)(F)F (stereo partly drawn) [CPD 13, 12-((2-(2,6-dioxopiperidin-3-yl)-1,3-dioxoisoindolin-5-yl)amino)-N-(4-(3-(((R)-3′-(2-((4-fluorobenzyl)((S)-1,1,1-trifluoropropan-2-yl)amino)-2-oxoethyl)-2′,4′-dioxo-2,3-dihydrospiro[indene-1,5′-oxazolidin]-5-yl)amino)-3-oxopropyl)phenyl)dodecanamide]
- Kelly NB cell growth inhibition (Kelly cells): Cell growth inhibition was observed
- IC50 (Kelly cells): 1.39 µM

- binding to HAT (EP300) domain (HAT (EP300) domain): bind
- binding to cereblon (CRBN) (cereblon (CRBN)): bind
Compound: C[C@H](N(Cc1ccc(F)cc1)C(=O)CN1C(=O)O[C@@]2(CCc3cc(NC(=O)CCOCCOCCOCCOCCOCCOCCNc4cccc5c4C(=O)N(C4CCC(=O)NC4=O)C5=O)ccc32)C1=O)C(F)(F)F (stereo partly drawn) [CPD 2, 1-((2-(2,6-dioxopiperidin-3-yl)-1,3-dioxoisoindolin-4-yl)amino)-N—((R)-3′-(2-((4-fluorobenzyl)((S)-1,1,1-trifluoropropan-2-yl)amino)-2-oxoethyl)-2′,4′-dioxo-2,3-dihydrospiro[indene-1,5′-oxazolidin]-5-yl)-3,6,9,12,15,18-hexaoxahenicosane-21-amide]
- Kelly NB cell growth inhibition (Kelly cells): did not inhibit cellular growth
- IC50 (Kelly cells): 3.42 µM

Source: patent US12428412B2 (DANA-FARBER CANCER INSTITUTE, INC., priority 2018, dated 2025)
